Patent publication US20230272083A1, “COMBINATION OF AN ANTI-PD-L1 ANTIBODY AND A DNA-PK INHIBITOR FOR THE TREATMENT OF CANCER” (Merck Patent GmbH, priority 2017, published 2023)

How the values were obtained:
DNA-PK = DNA-PK (Homo sapiens, UniProt P78527); experiment: Crystallographic and enzyme kinetics studies; type: biochemical
Source text: DNA-PK, together with five additional protein factors (Ku70, Ku80, XRCC4, Ligase IV and Artemis) plays a critical role in the repair of DSB via NHEJ. Kinase activity of DNA-PK is essential for proper and timely DNA repair and the long-term survival of cancer cells.

[1] = test system: human PBMC-derived immune cells; experiment: Effect of culture media from M3814-induced senescent cells on immune cells (live imaging); type: cell-based
Description: (§1) These substantial changes in gene expression were built gradually and correlated with the development of senescence phenotype. Several proteins from the induced subset were measured in the cell media (Meso Scale Discovery) and confirmed that they are secreted by senescent cells in the absence of M3814.

[2] = test system: murine colon tumor model MC38; experiment: M3814 and avelumab in syngeneic MC38 tumor model (Example 1); type: in vivo, C57BL6/N mice; settings: M3814 150 mg/kg orally once daily, avelumab 400 μg/mouse intravenously on days 3, 6 and 9; for median time the tumors needed to double in size as compared to their initial volume at day 0: Kaplan-Meyer evaluation
Source text: This model allows the use of immunocompetent mice, a necessary requirement to study the T-cell mediated antitumor effect of Avelumab. The experimental set up included the induction of MC38 tumors in C57BL6/N mice by injection of 1×10^6 tumor cells into the right flank of the animals. Tumor growth was followed over time by measuring length and width using a caliper. When tumors were established to an average size of 50-100 mm^3, mice were subdivided in 4 treatment groups with 10 animals each, and treatment started. This day was defined as day 0. Group 1 received vehicle treatment. Group 2 received M3814 orally once daily at 150 mg/kg in a volume of 10 ml/kg. Group 3 received avelumab intravenously once daily at 400 μg/mouse in a volume of 5 ml/kg on days 3, 6 and 9. Group 4 received M3814 orally once daily at 150 mg/kg in a volume of 10 ml/kg and avelumab intravenously once daily at 400 μg/mouse in a volume of 5 ml/kg on days 3, 6 and 9.

A549 and A375 cells = experiment: Nanostring PanCancer Immune panel mRNA analysis of IR/M3814 induced senescent cells; type: cell-based
Description: as §1

[3] = test system: p53 wild-type cancer cells (A549, A375, H460); experiment: Cell cycle arrest and senescence after ionizing radiation plus M3814; type: cell-based
[4] = 10 mg/kg dose; cited from earlier work

Row | Compound | inhibition of DNA-PK (DNA-PK) | immunomodulatory effect of culture media from M3814-induced senescent cells [1] | median time the tumors needed to double in size as compared to their initial volume at day 0 [2] [days] | T/C values calculated at day 13 [2] [%] | upregulation of eighteen immune response genes compared to controls (A549 and A375 cells) | reversibility of senescence phenotype following compound removal ([3]; A549 cells, live cell imaging and BrdU labeling) | time to typical senescence phenotype (large/flat morphology, β-Gal staining) ([3]; IR 2-5Gy plus sustained M3814) | ATM dependent signaling, including CHK2 and p53-dependent cell cycle arrest ([3]; in the presence of DDSBs) | cell cycle arrest in isogenic p53-null cells ([3]; isogenic p53-null A549 cells, IR plus M3814) | cell cycle effect ([3]; proliferating p53 wild-type A549, A375, H460, single dose of ionizing radiation (2-5Gy) and sustained exposure to M3814) | receptor occupancy [4] | tolerability [4]
1 | COc1ccc([C@@H](O)c2cc(-c3ncnc4cc(N5CCOCC5)ccc34)c(F)cc2Cl)nn1 [Compound M3814, (S)-[2-chloro-4-fluoro-5-(7-morpholin-4-yl-quinazolin-4-yl)-phenyl]-(6-methoxypyridazin-3-yl)-methanol] | potent and selective ATP-competitive inhibitor | increased immunomodulatory effect | 10 | 47 | 3-150 fold | not reversible | 4-7 days | enhanced activation of the ATM dependent signaling | lost the ability to fully arrest their cell cycle | complete cell cycle block | – | –
2 | avelumab: fully human monoclonal antibody of the immunoglobulin (Ig) G1 isotype; selectively binds to PD-L1 | – | – | 13 | 60 | – | – | – | – | – | – | excellent receptor occupancy | well tolerated
